Measured values published in publication PMC3990705, “A p38 Substrate-Specific MK2-EGFP Translocation Assay for Identification and Validation of New p38 Inhibitors in Living Cells: A Comprising Alternative for Acquisition of Cellular p38 Inhibition Data” (PLoS ONE, 2014).
pIC50: −log10 of the molar value. Like-named read-outs stand apart in the source and are kept apart here.

Assays:
[1] = tested on: TNFα release in human whole blood; test: Whole blood assay (WBA), TNFα release after LPS stimulation; assay type: cell-based; settings: N = 3, read-out: WBA TNFα IC50 ± SD
Procedure: For determination of inhibitor potency of the compounds by detection of TNFα release in human whole blood an in vitro assay using human whole blood stimulated with LPS for TNFα synthesis is a reliable test system for inhibitors of cytokine synthesis, especially for p38 MAP kinase inhibitors as TNFα synthesis is mainly mediated by p38 MAP kinase. Therefore, the synthesis and release of proinflammatory cytokines in human whole blood from a healthy donor is stimulated using a LPS solution (1 µg/mL, Sigma-Aldrich, Germany) after preincubation of inhibitor dilution (as described in [26]). After 2.5 hours of incubation in a 5% CO2 incubator, the stimulation is stopped and plasma is obtained by centrifugation of the whole blood, followed by TNFα readout from the plasma using a commercially available TNFα ELISA kit (R&D Systems, Germany). The blood sample was obtained with the written informed consent of the donor to participate in this study. The ethics committee (Ethik-Kommission der Medizinischen Fakultät und am Universitätsklinikum Tuebingen) state that an ethical statement is not mandatory when the researchers use their own blood/plasma for experiments. The german statutes and the Declaration of Helsinki are not aimed at experiments using samples provided by the principal investigator him or herself. In the opinion of the committee, the Declaration of Helsinki is designed to protect the patient’s interests and to avoid abuse of the patient’s material.

p38 MAPK = molecular target: T1, p38 MAPK (Homo sapiens, UniProt Q16539); test: MK2-EGFP translocation assay (High Content Analysis); assay type: cell-based; settings: for nuc/cyt ratio at 15 nM ± SD: 15 nM compound, activated U2OS MK2-EGFP cells, N = 3; for potency towards p38 inhibition in the translocation screen: 1.5 µM, 150 nM, 15 nM, normalized to Skepinone-L
T1 construct: endogenous in cells; host or cells: U2OS-MK2-EGFP-clone-RA#2
T1 sequence (Q16539 whole entry): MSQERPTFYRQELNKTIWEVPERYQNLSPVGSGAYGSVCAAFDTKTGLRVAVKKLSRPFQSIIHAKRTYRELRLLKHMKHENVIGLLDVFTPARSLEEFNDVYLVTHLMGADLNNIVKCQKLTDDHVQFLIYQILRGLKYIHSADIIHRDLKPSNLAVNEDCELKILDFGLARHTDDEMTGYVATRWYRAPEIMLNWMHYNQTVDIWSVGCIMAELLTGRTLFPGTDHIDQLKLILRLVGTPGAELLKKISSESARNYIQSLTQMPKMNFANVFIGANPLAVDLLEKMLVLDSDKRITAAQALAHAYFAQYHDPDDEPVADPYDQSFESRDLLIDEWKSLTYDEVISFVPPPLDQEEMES
Procedure: Screening was performed in biological duplicates on different days and different cell line passages. For cellular screening ∼ 12.500 cells were seeded into 96-well clear tissue-culture micro-plates (Bio-One µClear, Greiner, Germany) and grown until 90% confluence. The Rac/p38 MAPK pathway was activated by exchanging normal growth media with hyperosmotic media. […] Plates were mixed thoroughly and incubated at 37°C and 5% CO2 in a humidified chamber atmosphere. After 80–90 minutes the treatment was stopped by disposing the media. Subsequently cell were fixed using 3% PFA/PBS in 1x PBS at pH 7.4 for 15 minutes and washed with PBS and PBST (0.05% Tween-20) following nuclear DNA staining using 150 ng/mL DAPI in 1xPBS/35 µg/mL RNAseA. Finally, plates were transferred in an automated cytomat incubator (Thermo Scientific, Germany) combined with a robotic plate handling device (PAA, UK) and subjected to automated image acquisition.
Images of EGFP and DAPI fluorescent cells were acquired using an Image Xpress micro XL microscope (Molecular Devices, Germany). […] On average 400 cells per well were imaged, allowing reliable statistical measures and quantification.
Automated image analysis was carried out using the MetaXpress software (Molecular Devices, Germany). Fluorescence intensity ratios were calculated using the average of the cellular MK2-EGFP fluorescence intensity (Cell: nuclear inner/outer mean intensity) of all images/sites per well. p38 activation was defined as positive when the nucleocytoplasmic MK2-fluorescence intensity ratio was below 0.7. For further analysis, the average of the mean of the entire plate was calculated and used for internal plate normalization. For quality assessment of the screening the Log-Z-score was determined. Obtained values were calculated on the normalized nucleocytoplasmic MK2-fluorescence intensity ratio (average of the mean) of respective data-points.
Image analysis and result calculations were performed as described.

p38α MAPK = p38α MAPK (Homo sapiens, UniProt Q16539); test: Biochemical p38 MAPK activity assay (BAA), ELISA of ATF-2 phosphorylation
p38α MAPK, sequence (Q16539 whole entry): as above
Procedure: Kinase activity assays were used for identification of p38α MAPK and JNK3 inhibitors. The experimental settings and screening procedures are previously described by Goettert et al., [28].
Briefly, the ELISA assay was performed using 96-well plates (MaxiSorp, NUNC, Germany) by measuring the activity of p38α MAPK after incubation with a candidate inhibitor. Therefore, the phosphorylation degree of activation transcription factor 2 (ATF-2) is detected by a monoclonal peroxidase conjugated antibody in a dilution of 1∶5000 (Sigma-Aldrich, Germany). This monoclonal anti-phospho-ATF-2 (Thr69/71) peroxidase-conjugated antibody reacts specifically with dually phosphorylated ATF-2, detecting neither the mono- nor the unphosphorylated kinase substrate. ATF- 2 is a natural substrate of the p38 MAPKs and JNK3, and its phosphorylation is inversely correlated with the inhibitor potency.

JNK = tested on: JNK; set-up: method as in PMID 11717429; settings: cited from earlier work
JNK3 = test: Phospho-Ser63-c-Jun/JNK assay in U2OS MK2-EGFP cells; assay type: cell-based, human; settings: phospho-c-Jun Ser-63 endpoint, multiplexed with MK2-EGFP assay
U2OS MK2-EGFP cells = test: Cellular viability assay (AlamarBlue); assay type: cell-based, human; settings: 24 h, 15 nM–15 µM
Procedure: The cellular viability assay was performed according to standard procedures (for details see AlamarBlue manual #DAL1100, Life Technologies, Germany). Briefly, ∼ 15.000 cells of the U2OS MK2-EGFP clone-RA#2 cell line were plated in 96 well µclear plate and grown in growth media until sub-confluency. Subsequently, cells were treated with compounds in indicated concentrations for 24 h at 37°C in a humidified chamber containing 5% CO2. After compound treatment the amount of living cells was monitored microscopically and cell-viability was determined using the AlamarBlue assay. For this purpose, resazurin was added freshly to the growth media devoid of phenol red as described. The media premixed with the resazurin substrate was pre-warmed to 37°C and 200 µL were added to the pre-treated cells in the 96-well plate. Following incubation at 37°C, 5% CO2 for 4 h the fluorescence of the media was measured in a PHERAstar photometer (BMG Labtech, USA) with the filter sets: Ex: 540nm/Em: 580nm.

[2] = inhibition of phosphorylation of ATF2, N = 3, read-out: BAA p38 IC50 ± SD

Row | Compound | pIC50 [1] | nuc/cyt ratio at 15 nM ± SD (p38 MAPK) | pIC50 (p38α MAPK; read-out: BAA p38 IC50 ± SD) | further results
1 | Oc1c2ccccc2c2c3c(cccc13)N=N2 [SP600125] |  |  |  | selectivity over p38 (JNK): 300 fold; inhibition of p38 and JNK3 (selectivity) (JNK3): Selective inhibition of JNK3 activity
2 | O=C(Nc1cc(Nc2ccc3c(c2)CCc2ccc(OCCN4CCOCC4)cc2C3=O)ccc1F)c1ccoc1 [LN1311] | 6.97 | 1,088±0,0781 | 8.96 | 
3 | CC(C)Nc1cc(-c2[nH]c(SC[C@H](O)CO)nc2-c2ccc(F)cc2)ccn1 [LN954] | 6.74 | 1,068±0,0406 | 8.24 | 
4 | CC(C)C(C)Nc1cc(-c2[nH]c(SCCCO)nc2-c2ccc(F)cc2)ccn1 (stereo not shown) [LN949] | 6.76 | 1,111±0,0012 | 7.93 | 
5 | Nc1ccccc1Nc1ccc2c(c1)CCc1ccc(OC[C@H](O)CO)cc1C2=O [LN809] | 7.33 | 1,064±0,1062 | 8.00 | 
6 | O=C1c2ccc(Nc3ccc(F)cc3F)cc2CCc2ccc(OC[C@H](O)CO)cc21 [Skepinone-L, reference compound] | 7.23 |  |  | cellular effectiveness in log-dilution experiments (p38 MAPK; 0 µM –100 µM, living cells): inhibits p38 from 10 nM –1 µM in living cells; potency towards p38 inhibition in the translocation screen (p38 MAPK): outstanding potency; effect on nuclear export of MK2-EGFP (p38 MAPK; 10 µM compound): abolishes nuclear export of MK2-EGFP; cytotoxic effects / cellular viability (U2OS MK2-EGFP cells): do not affect cellular viability
7 | CC(C)Nc1cc(-c2[nH]c(SCCO)nc2-c2ccc(F)cc2)ccn1 [LN957] | 6.89 | 1,158±0,0756 |  | pIC50 (p38α MAPK; [2]): 8.52

Now from value to molecule, other results behind:

Row | pIC50 [1] | nuc/cyt ratio at 15 nM ± SD (p38 MAPK) | pIC50 (p38α MAPK; read-out: BAA p38 IC50 ± SD) | Compound | further results
8 | 8.22 | 1,206±0,0326 |  | O=C(Nc1cc(Nc2ccc3c(c2)CCc2ccc(OCCN4CCOCC4)cc2C3=O)c(F)cc1F)c1ccsc1 [LN1637] | pIC50 (p38α MAPK; [2]): 9.30; pIC50 (p38α MAPK; summary of Table 1, read-out: BAA, IC50): 8.30
9 |  | 1,211±0,1416 | 8.72 | O=C(NCC(O)CO)c1ccc2c(c1)C(=O)c1ccc(Nc3cc(NC(=O)c4ccsc4)c(F)cc3F)cc1CC2 (stereo not shown) [LN1878] | 
10 | 7.43 | 1,088±0,0231 | 8.49 | CNC(=O)c1ccc2c(c1)C(=O)c1ccc(Nc3ccc(F)cc3F)cc1CC2 [LN1496] | 
11 | 6.66 | 1,057±0,0332 | 8.89 | O=C(Nc1cc(Nc2ccc3c(c2)CCc2ccc(OCCN4CCOCC4)cc2C3=O)c(F)cc1F)c1ccccc1 [LN1503] | 
12 |  | 1,288±0,2483 | 8.43 | CC(C)Sc1nc(-c2ccc(F)cc2)c(-c2ccnc(NC3CCOCC3)c2)[nH]1 [RN4296] | potency towards p38 inhibition in the translocation screen (p38 MAPK): most potent compound towards p38 inhibition
